Experimental data published in patent US11529436B2, “Engineered three-dimensional skin tissues, arrays thereof, and methods of making the same” (Organovo, Inc., priority 2014, dated 2022).

What was measured:
Type in all cases: cell-based, human
[1] = system: bioprinted full thickness skin tissue; assay: Lactate dehydrogenase (LDH) activity in media of bioprinted skin tissue, skin irritation test
Excerpt: Bio-ink was generated by a cellular mixture of 100% primary adult human dermal fibroblasts (HDFa) in 8% gelatin (NOVOGEL 2.0) at a concentration of 100 million cells per milliliter. The cell: gelatin ratio was altered to reduce the cellular density of the dermal sheet to better mimic dermal tissue in native skin. Three-dimensional bio-ink constructs were printed by continuous deposition using the NOVOGEN BIOPRINTER platform in a 4 mm×4 mm×0.5 mm base to create a dermal structure resembling a sheet. […] The transwell printing surface contained a polytetrafluoroethylene (PTFE) membrane coated with equimolar mixture of types I and III collagen (bovine) with pores 3 μm in size. Epidermal cell paste containing a mixture of 100% primary neonatal human epidermal keratinocytes (HEKn) was then printed on top of the dermal bio-ink. Cell paste was measured post print at 87.1% viable by trypan exclusion assay. Cell numbers in the deposited epidermal layer was estimated at 60,000 cells by cell counting on a Cell-O-Meter. Immediately following the print, constructs were placed at 4° C. for 10 minutes. Cold media was then added to the outer well of the transwell in a volume of 3 ml. The media used for subsequent growth and maintenance of the skin tissue was a 50:50 ratio of HDFa: HEKn media. The initial volume added was sufficient to submerge the structure. All subsequent media changes used warmed media (37° C.) added to the outer well of the transwell and not to the inner basket. Media was changed 48 hours later and reduced to a volume of 1.5 ml per well to bring the structure to an air-liquid interface (ALI). Media and subsequently changed 48 hours after that (day 4) at a volume of 1.5 ml. […] IL-1α production (R&D Systems) was analyzed in a colorimetric assays per manufacturer's protocol. Media was analyzed for lactate dehydrogenase as a marker for cytotoxicity. IL-1α production was assessed as a complementary endpoint to classic cytotoxicity testing to improve predictability of irritants. […] Viability was measured as fluorescence in the media by conversion of resazurin to resorufin. […]

[2] = system: bioprinted full thickness skin tissue; assay: IL-1α production in media of bioprinted skin tissue (colorimetric assay), skin irritation test
Excerpt: Bio-ink was generated by a cellular mixture of 100% primary adult human dermal fibroblasts (HDFa) in 8% gelatin (NOVOGEL 2.0) at a concentration of 100 million cells per milliliter. The cell: gelatin ratio was altered to reduce the cellular density of the dermal sheet to better mimic dermal tissue in native skin. Three-dimensional bio-ink constructs were printed by continuous deposition using the NOVOGEN BIOPRINTER platform in a 4 mm×4 mm×0.5 mm base to create a dermal structure resembling a sheet. […] The transwell printing surface contained a polytetrafluoroethylene (PTFE) membrane coated with equimolar mixture of types I and III collagen (bovine) with pores 3 μm in size. Epidermal cell paste containing a mixture of 100% primary neonatal human epidermal keratinocytes (HEKn) was then printed on top of the dermal bio-ink. Cell paste was measured post print at 87.1% viable by trypan exclusion assay. Cell numbers in the deposited epidermal layer was estimated at 60,000 cells by cell counting on a Cell-O-Meter. Immediately following the print, constructs were placed at 4° C. for 10 minutes. Cold media was then added to the outer well of the transwell in a volume of 3 ml. The media used for subsequent growth and maintenance of the skin tissue was a 50:50 ratio of HDFa: HEKn media. The initial volume added was sufficient to submerge the structure. All subsequent media changes used warmed media (37° C.) added to the outer well of the transwell and not to the inner basket. Media was changed 48 hours later and reduced to a volume of 1.5 ml per well to bring the structure to an air-liquid interface (ALI). Media and subsequently changed 48 hours after that (day 4) at a volume of 1.5 ml. On day 5, media was changed and further reduced to 1 ml per well and subsequently changed daily. On day 10, skin tissues were subject to a skin irritation test method using 1% TRITON X-100. 1% TRITON X-100 is a known irritant and reference chemical currently used in other 3D skin models. Methods were based on OECD guidelines 439 and 431 for applying human skin models to in vitro skin irritation or corrosion, respectively. On day 10, conditioned media was saved (designated time=0) and 1 ml of fresh media was added to the outer well of the transwell. The printed skin tissue was then treated with 20 μl of PBS as a negative control or with 20 μl of 1% TRITON X-100 as a positive control and known irritant. Test substances were pipetted manually to the apical surface of the tissue. TRITON X-100 was diluted to a 1% aqueous solution in deionized water and sterile filtered through a 20 micron filter before use. […] Media was saved (designated time=1 hour). Samples were then washed extensively by PBS rinsing. […] The media was then changed at 24 hours and at 48 hours post treatment. Total media collected included time points=−48, 0, 1, 24, and 48 hours. IL-1α production (R&D Systems) was analyzed in a colorimetric assays per manufacturer's protocol. Media was analyzed for lactate dehydrogenase as a marker for cytotoxicity. IL-1α production was assessed as a complementary endpoint to classic cytotoxicity testing to improve predictability of irritants. Keratinocytes normally produce and release inflammatory cytokine IL-1α in response to chemical or physical stress. […] Viability was measured as fluorescence in the media by conversion of resazurin to resorufin. […]

[3] = system: bioprinted full thickness skin tissue; assay: Viability of bioprinted skin tissue by alamar blue assay, skin irritation test
Excerpt: Bio-ink was generated by a cellular mixture of 100% primary adult human dermal fibroblasts (HDFa) in 8% gelatin (NOVOGEL 2.0) at a concentration of 100 million cells per milliliter. The cell: gelatin ratio was altered to reduce the cellular density of the dermal sheet to better mimic dermal tissue in native skin. Three-dimensional bio-ink constructs were printed by continuous deposition using the NOVOGEN BIOPRINTER platform in a 4 mm×4 mm×0.5 mm base to create a dermal structure resembling a sheet. […] The transwell printing surface contained a polytetrafluoroethylene (PTFE) membrane coated with equimolar mixture of types I and III collagen (bovine) with pores 3 μm in size. Epidermal cell paste containing a mixture of 100% primary neonatal human epidermal keratinocytes (HEKn) was then printed on top of the dermal bio-ink. Cell paste was measured post print at 87.1% viable by trypan exclusion assay. Cell numbers in the deposited epidermal layer was estimated at 60,000 cells by cell counting on a Cell-O-Meter. Immediately following the print, constructs were placed at 4° C. for 10 minutes. Cold media was then added to the outer well of the transwell in a volume of 3 ml. The media used for subsequent growth and maintenance of the skin tissue was a 50:50 ratio of HDFa: HEKn media. The initial volume added was sufficient to submerge the structure. All subsequent media changes used warmed media (37° C.) added to the outer well of the transwell and not to the inner basket. Media was changed 48 hours later and reduced to a volume of 1.5 ml per well to bring the structure to an air-liquid interface (ALI). Media and subsequently changed 48 hours after that (day 4) at a volume of 1.5 ml. On day 5, media was changed and further reduced to 1 ml per well and subsequently changed daily. On day 10, skin tissues were subject to a skin irritation test method using 1% TRITON X-100. 1% TRITON X-100 is a known irritant and reference chemical currently used in other 3D skin models. Methods were based on OECD guidelines 439 and 431 for applying human skin models to in vitro skin irritation or corrosion, respectively. On day 10, conditioned media was saved (designated time=0) and 1 ml of fresh media was added to the outer well of the transwell. The printed skin tissue was then treated with 20 μl of PBS as a negative control or with 20 μl of 1% TRITON X-100 as a positive control and known irritant. […] IL-1α production (R&D Systems) was analyzed in a colorimetric assays per manufacturer's protocol. Media was analyzed for lactate dehydrogenase as a marker for cytotoxicity. IL-1α production was assessed as a complementary endpoint to classic cytotoxicity testing to improve predictability of irritants. […] Viability was measured as fluorescence in the media by conversion of resazurin to resorufin. […]

CCCCCCCCCCCCOS(=O)(=O)[O-].[Na+] [SDS]
LDH activity higher than PBS [1]: about 1.7 fold
IL-1α production [2]: much stronger response
irritancy under these testing conditions, 5% SDS versus 1% TRITON X-100 [3]: much stronger irritant
viability compared to the PBS control (alamar blue assay) [3]: 2.45%
